Measurements from PubChem BioAssay AID2060489 (Molecular Pharmacology Branch, DTP, NCI, 2025).

Tested on: 922993-354-T-J3-PDC complex spheroids, viability
Test: Anticancer human tumor 922993-354-T-J3-PDC patient-derived endometrial carcinoma cell line growth inhibition [GQUAD]
Conditions: for IC50: curve of first compound; for viability, T/C: stronger effect = lower value
Outline: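 Viability of tumor cells grown as complex spheroids with endothelial and stromal cells, exposed to drug combinations. Top concentration at or near clinical Cmax (else 10 microM), diluted in half-log increments.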

[1] = second compound 0.0316 µM, first compound 0.0316 µM
[2] = second compound 0.0316 µM, first compound 0.316 µM
[3] = second compound 0.1 µM, first compound 0.0316 µM
[4] = second compound 0.1 µM, first compound 0.316 µM
[5] = second compound 0.316 µM, first compound 0.0316 µM
[6] = second compound 0.316 µM, first compound 0.316 µM
[7] = second compound 1 µM, first compound 0.0316 µM
[8] = second compound 1 µM, first compound 0.316 µM
[9] = second compound 3.16 µM, first compound 0.0316 µM
[10] = second compound 3.16 µM, first compound 0.316 µM
[11] = second compound 10 µM, first compound 0.0316 µM
[12] = second compound 10 µM, first compound 0.316 µM
[13] = second compound 0.0316 µM, first compound 0.1 µM
[14] = second compound 0.0316 µM, first compound 1 µM
[15] = second compound 0.0316 µM, first compound 3.16 µM
[16] = second compound 0.0316 µM, first compound 10 µM
[17] = second compound 0.1 µM, first compound 0.1 µM
[18] = second compound 0.1 µM, first compound 1 µM
[19] = second compound 0.1 µM, first compound 3.16 µM
[20] = second compound 0.1 µM, first compound 10 µM
[21] = second compound 0.316 µM, first compound 0.1 µM
[22] = second compound 0.316 µM, first compound 1 µM
[23] = second compound 0.316 µM, first compound 3.16 µM
[24] = second compound 0.316 µM, first compound 10 µM
[25] = second compound 1 µM, first compound 0.1 µM
[26] = second compound 1 µM, first compound 1 µM
[27] = second compound 1 µM, first compound 3.16 µM
[28] = second compound 1 µM, first compound 10 µM
[29] = second compound 3.16 µM, first compound 0.1 µM
[30] = second compound 3.16 µM, first compound 1 µM
[31] = second compound 3.16 µM, first compound 3.16 µM
[32] = second compound 3.16 µM, first compound 10 µM
[33] = second compound 10 µM, first compound 0.1 µM
[34] = second compound 10 µM, first compound 1 µM
[35] = second compound 10 µM, first compound 3.16 µM
[36] = second compound 10 µM, first compound 10 µM
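Further: spheroids exposed to compounds for seven days.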
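Wherever viability, T/C is given: 100% = DMSO vehicle control viability.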

Structure (SMILES): Cc1[nH]c2ccccc2c1CCNCc1ccc(/C=C/C(=O)NO)cc1 + Cc1[nH]c2ccc(F)cc2c1-c1nc2c3cccnc3c3ncccc3c2[nH]1
- IC50 (second compound 0.0316 µM): > 0.316 µM
- IC50 (second compound 0.1 µM): > 0.316 µM
- IC50 (second compound 0.316 µM): > 0.316 µM
- IC50 (second compound 1 µM): > 0.316 µM
- IC50 (second compound 3.16 µM): > 0.316 µM
- IC50 (second compound 10 µM): > 0.316 µM
- viability, T/C (second compound 0.0316 µM, first compound 0.000999 µM): 95.9%
- viability, T/C (second compound 0.0316 µM, first compound 0.00316 µM): 87%
- viability, T/C (second compound 0.0316 µM, first compound 0.00999 µM): 100%
- viability, T/C [1]: 77.6%
- viability, T/C (second compound 0.0316 µM, first compound 0.0999 µM): 75.6%
- viability, T/C [2]: 61.3%
- viability, T/C (second compound 0.1 µM, first compound 0.000999 µM): 94.1%
- viability, T/C (second compound 0.1 µM, first compound 0.00316 µM): 100%
- viability, T/C (second compound 0.1 µM, first compound 0.00999 µM): 85.3%
- viability, T/C [3]: 83.3%
- viability, T/C (second compound 0.1 µM, first compound 0.0999 µM): 79.3%
- viability, T/C [4]: 55.8%
- viability, T/C (second compound 0.316 µM, first compound 0.000999 µM): 96.2%
- viability, T/C (second compound 0.316 µM, first compound 0.00316 µM): 93.5%
- viability, T/C (second compound 0.316 µM, first compound 0.00999 µM): 91%
- viability, T/C [5]: 81.2%
- viability, T/C (second compound 0.316 µM, first compound 0.0999 µM): 88.3%
- viability, T/C [6]: 66.9%
- viability, T/C (second compound 1 µM, first compound 0.000999 µM): 96.3%
- viability, T/C (second compound 1 µM, first compound 0.00316 µM): 92.2%
- viability, T/C (second compound 1 µM, first compound 0.00999 µM): 115%
- viability, T/C [7]: 84%
- viability, T/C (second compound 1 µM, first compound 0.0999 µM): 100%
- viability, T/C [8]: 50.6%
- viability, T/C (second compound 3.16 µM, first compound 0.000999 µM): 93.5%
- viability, T/C (second compound 3.16 µM, first compound 0.00316 µM): 80.6%
- viability, T/C (second compound 3.16 µM, first compound 0.00999 µM): 80%
- viability, T/C [9]: 79.1%
- viability, T/C (second compound 3.16 µM, first compound 0.0999 µM): 95.4%
- viability, T/C [10]: 71.8%
- viability, T/C (second compound 10 µM, first compound 0.000999 µM): 82.6%
- viability, T/C (second compound 10 µM, first compound 0.00316 µM): 109%
- viability, T/C (second compound 10 µM, first compound 0.00999 µM): 88.2%
- viability, T/C [11]: 82.8%
- viability, T/C (second compound 10 µM, first compound 0.0999 µM): 112%
- viability, T/C [12]: 70.3%

Structure (SMILES): Cc1cccc(N(C)C(=O)C2C(O)CCN2c2nc(C)cc(C(F)(F)F)c2C#N)c1 (stereo unspecified) + CN(C)c1ccc(Nc2c3ccc(NC(=O)CCN4CCCC4)cc3nc3cc(NC(=O)CCN4CCCC4)ccc23)cc1
- IC50 (second compound 0.0316 µM): > 10 µM
- IC50 (second compound 0.1 µM): > 10 µM
- IC50 (second compound 0.316 µM): > 10 µM
- IC50 (second compound 1 µM): > 10 µM
- IC50 (second compound 3.16 µM): > 10 µM
- IC50 (second compound 10 µM): > 10 µM
- viability, T/C [1]: 80.8%
- viability, T/C [13]: 89.6%
- viability, T/C [2]: 80.6%
- viability, T/C [14]: 92.5%
- viability, T/C [15]: 90.1%
- viability, T/C [16]: 95.4%
- viability, T/C [3]: 89.6%
- viability, T/C [17]: 111%
- viability, T/C [4]: 87.5%
- viability, T/C [18]: 103%
- viability, T/C [19]: 94.9%
- viability, T/C [20]: 67.6%
- viability, T/C [5]: 90.4%
- viability, T/C [21]: 105%
- viability, T/C [6]: 95.5%
- viability, T/C [22]: 91.8%
- viability, T/C [23]: 83.2%
- viability, T/C [24]: 69.6%
- viability, T/C [7]: 85.3%
- viability, T/C [25]: 82.7%
- viability, T/C [8]: 101%
- viability, T/C [26]: 93.6%
- viability, T/C [27]: 97.1%
- viability, T/C [28]: 82.1%
- viability, T/C [9]: 96.8%
- viability, T/C [29]: 102%
- viability, T/C [10]: 104%
- viability, T/C [30]: 106%
- viability, T/C [31]: 99.3%
- viability, T/C [32]: 91.5%
- viability, T/C [11]: 105%
- viability, T/C [33]: 133%
- viability, T/C [12]: 113%
- viability, T/C [34]: 106%
- viability, T/C [35]: 103%
- viability, T/C [36]: 80.3%

Structure (SMILES): C=CCn1c(=O)c2cnc(Nc3ccc(N4CCN(C)CC4)cc3)nc2n1-c1cccc(C(C)(C)O)n1 + CN(C)c1ccc(Nc2c3ccc(NC(=O)CCN4CCCC4)cc3nc3cc(NC(=O)CCN4CCCC4)ccc23)cc1
- IC50 (second compound 0.0316 µM): 4.2 µM
- IC50 (second compound 0.1 µM): 4.2 µM
- IC50 (second compound 0.316 µM): 4.34 µM
- IC50 (second compound 1 µM): 5.26 µM
- IC50 (second compound 3.16 µM): 5.16 µM
- IC50 (second compound 10 µM): 6.53 µM
- viability, T/C [1]: 103%
- viability, T/C [13]: 80.9%
- viability, T/C [2]: 87.4%
- viability, T/C [14]: 74.5%
- viability, T/C [15]: 67.7%
- viability, T/C [16]: 12.4%
- viability, T/C [3]: 95.3%
- viability, T/C [17]: 87.1%
- viability, T/C [4]: 88%
- viability, T/C [18]: 88.6%
- viability, T/C [19]: 61.8%
- viability, T/C [20]: 13.9%
- viability, T/C [5]: 93.6%
- viability, T/C [21]: 101%
- viability, T/C [6]: 73.2%
- viability, T/C [22]: 81.8%
- viability, T/C [23]: 65.6%
- viability, T/C [24]: 16.9%
- viability, T/C [7]: 110%
- viability, T/C [25]: 121%
- viability, T/C [8]: 95.3%
- viability, T/C [26]: 96.5%
- viability, T/C [27]: 79.1%
- viability, T/C [28]: 17%
- viability, T/C [9]: 100%
- viability, T/C [29]: 85.5%
- viability, T/C [10]: 113%
- viability, T/C [30]: 104%
- viability, T/C [31]: 74.6%
- viability, T/C [32]: 16.6%
- viability, T/C [11]: 111%
- viability, T/C [33]: 109%
- viability, T/C [12]: 108%
- viability, T/C [34]: 110%
- viability, T/C [35]: 87.2%
- viability, T/C [36]: 28.2%
